Assay results from patent publication US9237750B2, “Ornidazole and related compounds for use as herbicides” (RAMOT AT TEL-AVIV UNIVERSITY LTD., priority 2012, dated 2016).

What was measured:
Anabaena PCC7120 = experiment: Growth of cyanobacterium determined by chlorophyll concentration; format: cell-based
Protocol: Cyanobacteria were grown in BG11 medium under 30 μmol photons m^−2 sec^−1 at 30° C. in the presence of the indicated concentration of Ornidazole.
The cyanobacterium Anabaena PCC7120 was grown in BG-11 medium as was previously described (Marcus Y, et al., 2005. J Bacteriol 187, 4222-4228). The green eukaryotic alga Dunaliella salina was grown on a medium described by Ben-Amotz and Avron (Ben-Amotz A and Avron M 1983. Plant Physiol 72, 593-597), under 20 μmol photons m^−2 sec^−1 at 30° C. The aquatic plant Lemna was collected from an open pond at the Botanical garden of Tel Aviv University. Seedlings of Avena sterilis were grown in pots in a greenhouse. The marine diatom Phaeodactylum tricornutum was grown as described in Haimovich-Dayan et al. (Haimovich-Dayan M. et al. 2012. New Phytol 195:177-185).
The effect of Ornidazole on the growth of the cyanobacterium Anabaena PCC7120 was examined by determining the chlorophyll concentration. The algae were grown in BG-11 medium as described herein above. […] One mM Ornidazole in the medium caused a decrease in chlorophyll concentration to 1% of its original concentration after three days of such incubation (FIG. 1).

Avena sterilis = experiment: Photosynthetic quantum yield of immersed leaf blades (PAM fluorimeter); format: in vivo; conditions: 1 mM Ornidazole in water, 3.5 hours
Protocol: Leaves of Avena seedlings grown in a pot (still attached to the stem) were immersed in 1 mM Ornidazole for the indicated times. The photosynthetic quantum yield under various light intensities was determined with a PAM fluorimeter. The rate of net O2 exchange was determined using a Clark-type O2 electrode (Rank Brothers Ltd, UK). Fluorescent measurements (quantum yield, photochemical and non photochemical quenching) were determined using a modulated fluorometer (PAM, Walz, Germany) as described by Schreiber et al. (Schreiber U et al., 1986. fluorometer. Photosynth Res 10, 51-62) and Snir et al. (Snir A, et al., 2006. Photosynth Res 90, 233-242). Similar results were obtained by immersion of leaf blades of the weed Avena sterilis in 1 mM Ornidazole in water. After 3.5 hours of incubation the quantum yield of photosynthesis decreased by 50% under limiting light intensity and by 85% under saturating light intensity (FIG. 4).

[1] = test system: photosynthetic electron transport in Anabaena; experiment: Photosynthetic electron transport from H2O via reaction centers II and I and Methyl viologen to O2; format: cell-based, Anabaena PCC7120; conditions: water to Methyl viologen (1 mM) to oxygen; O2 electrode
Protocol: The rates were determined for cells grown in a growth medium at 30° C. under 180 μmol photons×m^−2×sec^−1. The rate of electron transport from H2O via reaction centers II and I and Methyl viologen to O2 was determined in the presence of 1 mM methyl viologen using an O2 electrode. The effects of Ornidazole on the dark and light reactions of the photosynthetic apparatus were examined. Ornidazole had no effect on the photosynthetic electron transport in Anabaena measured from water as electron donor through the two reaction centers to Methyl viologen and finally to oxygen as an electron acceptor (FIG. 5).

[2] = Stability in BG-11 medium lacking cells (LC-MS); format: physicochemical; conditions: 0.1 mM, dark or light, four days
Protocol: Ornidazole (molecular mass 220 and 222 due to two isotopes of chlorine) or degradation products were sought by LC-MS. The chromatograms of samples from the first and fourth days are shown in FIG. 7B and FIG. 7C, respectively. The retention time and molecular mass of the isolated molecules are designated.
The concentrations of Ornidazole and its degradation product in the medium were determined during the growth of the cyanobacterium Anabaena PCC7120 and in media lacking cyanobacteria in the dark or under illumination. Ornidazole at 0.1 mM concentration was added to three growth tubes containing BG-11 medium: one growth tube was kept in the dark, the second under light conditions of 60 μmol photons m^−2 sec^−1 and the third tube, to which Anabaena cells were added, was also kept under similar light conditions. Samples from each tube were taken every day, separated on a C18 reverse phase HPLC column, and Ornidazole (molecular mass 220 and 222 due to two isotopes of chlorine) or degradation products were sought by LC-MS. A degradation product of molecular mass 184, identified as C7H9N3O3, was found in all three tubes.

[3] = biological target: glyceraldehyde-3-phosphate dehydrogenase (GAPDH) (Homo sapiens, UniProt P04406); conditions: glycolytic GAPDH; cited from earlier work
[4] = biological target: triose phosphate isomerase (Homo sapiens, UniProt P60174); conditions: glycolytic triose phosphate isomerase; cited from earlier work
[5] = biological target: T1, Triose phosphate isomerase (Nostoc sp., UniProt Q8YP17); experiment: Enzyme activity in lysed Anabaena spheroplasts treated with 0 to 2 mM Ornidazole; format: cell-based, Anabaena PCC7120; set-up: endogenous in cells; host or cells: Anabaena PCC7120 spheroplasts, lysed after treatment; conditions: 30° C.
T1 sequence (Q8YP17 1-241): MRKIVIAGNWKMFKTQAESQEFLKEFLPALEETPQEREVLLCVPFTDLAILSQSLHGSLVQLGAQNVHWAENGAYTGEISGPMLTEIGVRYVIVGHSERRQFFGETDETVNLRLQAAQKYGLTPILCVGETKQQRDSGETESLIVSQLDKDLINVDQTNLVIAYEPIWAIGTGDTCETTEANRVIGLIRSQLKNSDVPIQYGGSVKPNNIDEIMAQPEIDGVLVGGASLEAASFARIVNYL
Protocol: Filaments of Anabaena PCC7120 were incubated in a medium containing: 0.5 M sucrose, 10 mM MgCl2, 5 mM Potassium Phosphate, 10 mM MES buffer pH 6.9, 1% (weight/volume) BSA and 1 mg/ml Lysozyme for 30 to 60 min. at 30° C. The spheroplasts yield was monitored by lysis in hypotonic solution. The spheroplasts were spun down and resuspended in a medium containing 0.4 M Mannitol, 10 mM MgCl2, 5 mM Potassium Phosphate and 20 mM Hepes buffer pH 8.0.
To further examine the effect of Ornidazole on these enzymes, the rate of photosynthesis of Anabaena spheroplasts, incubated in a spheroplast medium under saturating light intensity and CO2 concentrations in the presence of 0 to 2 mM Ornidazole at 30° C. was determined, using an O2 electrode. GAPDH and triose-phosphate isomerase activities were determined spectrophotometrically in the spheroplasts upon lysis (200 to 300 μg chlorophyll) using a reaction medium as described in the Materials and Methods section hereinabove.
A clear correlation was found between the reduced activity of triose phosphate isomerase and the declined rate of photosynthesis.

glyceraldehyde-3-phosphate dehydrogenase (GAPDH), sequence (P04406 whole entry, species assumed): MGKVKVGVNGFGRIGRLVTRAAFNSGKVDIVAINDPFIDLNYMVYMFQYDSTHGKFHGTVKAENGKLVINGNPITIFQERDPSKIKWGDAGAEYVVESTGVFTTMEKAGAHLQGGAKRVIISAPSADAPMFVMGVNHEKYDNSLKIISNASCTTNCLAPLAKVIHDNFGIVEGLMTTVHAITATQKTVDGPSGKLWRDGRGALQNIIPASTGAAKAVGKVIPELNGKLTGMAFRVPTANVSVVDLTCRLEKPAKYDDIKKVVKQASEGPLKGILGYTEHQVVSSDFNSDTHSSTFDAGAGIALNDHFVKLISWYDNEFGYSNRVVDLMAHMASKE
triose phosphate isomerase, sequence (P60174 whole entry, species assumed): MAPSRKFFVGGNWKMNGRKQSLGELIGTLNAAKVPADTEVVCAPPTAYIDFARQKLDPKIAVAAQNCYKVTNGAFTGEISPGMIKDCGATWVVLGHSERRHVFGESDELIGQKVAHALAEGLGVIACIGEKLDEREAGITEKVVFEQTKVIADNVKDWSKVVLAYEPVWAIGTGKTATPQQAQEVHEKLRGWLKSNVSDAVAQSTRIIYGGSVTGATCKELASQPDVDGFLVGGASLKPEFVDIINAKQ

SMILES: Cc1ncc([N+](=O)[O-])n1CC(O)CCl (stereo not drawn) [Ornidazole, 1-chloro-3-(2-methyl-5-nitro-1H-imidazol-1-yl)propan-2-ol]
- effect on growth (Anabaena PCC7120; 250 μM Ornidazole in BG-11 medium): stopped the growth and stimulated chlorosis
- chlorophyll concentration relative to original concentration (Anabaena PCC7120; 1 mM Ornidazole in the medium, after three days): 1%
- decrease of quantum yield of photosynthesis (Avena sterilis; limiting light intensity): 50%
- decrease of quantum yield of photosynthesis (Avena sterilis; saturating light intensity): 85%
- effect on photosynthetic electron transport [1]: no effect
- Ornidazole concentration in medium [2]: remained stable
- inhibition of enzyme activity [3]: inhibits the activity
- inhibition of enzyme activity [4]: inhibits the activity
- inhibition of triose phosphate isomerase compared to GAPDH [5]: inhibited at lower concentrations of Ornidazole and in a concentration-dependent manner
